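48-hour exposure; five concentrations; linearly interpolated endpoints. TGI: total growth inhibition.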
Assays:
Assay in all cases: growth of human tumour cells (NCI), 48 h
KM12 colon = test system: KM12 colon
HCC-2998 colon = test system: HCC-2998 colon
HCT-15 colon = test system: HCT-15 colon
OVCAR-5 ovarian = test system: OVCAR-5 ovarian
SK-MEL-5 melanoma = test system: SK-MEL-5 melanoma
SNB-75 CNS = test system: SNB-75 CNS
TK-10 renal = test system: TK-10 renal
MOLT-4 leukemia = test system: MOLT-4 leukemia
SK-OV-3 ovarian = test system: SK-OV-3 ovarian
MDA-MB-435 = test system: MDA-MB-435
SF-268 CNS = test system: SF-268 CNS
MDA-MB-231 breast = test system: MDA-MB-231 breast
SK-MEL-28 melanoma = test system: SK-MEL-28 melanoma
A549 NSCLC = test system: A549 NSCLC
HOP-92 NSCLC = test system: HOP-92 NSCLC
OVCAR-8 ovarian = test system: OVCAR-8 ovarian
RPMI-8226 leukemia = test system: RPMI-8226 leukemia
CCRF-CEM leukemia = test system: CCRF-CEM leukemia
OVCAR-4 ovarian = test system: OVCAR-4 ovarian
MALME-3M melanoma = test system: MALME-3M melanoma
SF-539 CNS = test system: SF-539 CNS
HL-60(TB) leukemia = test system: HL-60(TB) leukemia
NCI-H226 lung = test system: NCI-H226 lung
COLO 205 colon = test system: COLO 205 colon
ACHN renal = test system: ACHN renal
786-0 renal = test system: 786-0 renal
SN12C renal = test system: SN12C renal
UACC-62 melanoma = test system: UACC-62 melanoma
LOX IMVI melanoma = test system: LOX IMVI melanoma
HT29 colon = test system: HT29 colon
SK-MEL-2 melanoma = test system: SK-MEL-2 melanoma
HS 578T breast = test system: HS 578T breast
K-562 leukemia = test system: K-562 leukemia
SW-620 colon = test system: SW-620 colon
M14 melanoma = test system: M14 melanoma
NCI-H460 lung = test system: NCI-H460 lung
HOP-62 NSCLC = test system: HOP-62 NSCLC
MDA-N = test system: MDA-N
UACC-257 melanoma = test system: UACC-257 melanoma
U251 CNS = test system: U251 CNS
CAKI-1 renal = test system: CAKI-1 renal
DU-145 prostate = test system: DU-145 prostate
RXF 393 renal = test system: RXF 393 renal
NCI-H522 lung = test system: NCI-H522 lung
EKVX NSCLC = test system: EKVX NSCLC
NCI/ADR-RES ovarian = test system: NCI/ADR-RES ovarian
T-47D breast = test system: T-47D breast
UO-31 renal = test system: UO-31 renal
PC-3 prostate = test system: PC-3 prostate
SR leukemia = test system: SR leukemia
SNB-19 CNS = test system: SNB-19 CNS
OVCAR-3 ovarian = test system: OVCAR-3 ovarian
HCT-116 colon = test system: HCT-116 colon
A498 renal = test system: A498 renal
BT-549 breast = test system: BT-549 breast
IGROV1 ovarian = test system: IGROV1 ovarian
SF-295 CNS = test system: SF-295 CNS
NCI-H23 lung = test system: NCI-H23 lung
MCF7 breast = test system: MCF7 breast

## Cc1cc(S(=O)(=O)/N=C(/NN)NNc2cccc(C(F)(F)F)n2)c(S)cc1Cl
KM12 colon
  TGI: 37.2 µM
HCC-2998 colon
  TGI: 31.2 µM
HCT-15 colon
  TGI: 38.2 µM
OVCAR-5 ovarian
  TGI: 29.5 µM
SK-MEL-5 melanoma
  TGI: 37.9 µM
SNB-75 CNS
  TGI: 32 µM
TK-10 renal
  TGI: 51.8 µM
MOLT-4 leukemia
  TGI: 45.7 µM
SK-OV-3 ovarian
  TGI: 53 µM
MDA-MB-435
  TGI: 40.6 µM
SF-268 CNS
  TGI: 57.4 µM
MDA-MB-231 breast
  TGI: > 100 µM
SK-MEL-28 melanoma
  TGI: 33.5 µM
A549 NSCLC
  TGI: 44.1 µM
HOP-92 NSCLC
  TGI: 23.8 µM
OVCAR-8 ovarian
  TGI: 58.3 µM
RPMI-8226 leukemia
  TGI: > 100 µM
CCRF-CEM leukemia
  TGI: 63.6 µM
OVCAR-4 ovarian
  TGI: 36 µM
MALME-3M melanoma
  TGI: 42.1 µM
SF-539 CNS
  TGI: 43.6 µM
HL-60(TB) leukemia
  TGI: 71.6 µM
NCI-H226 lung
  TGI: 46 µM
COLO 205 colon
  TGI: 38.5 µM
ACHN renal
  TGI: 50.1 µM
786-0 renal
  TGI: 47.9 µM
SN12C renal
  TGI: > 100 µM
UACC-62 melanoma
  TGI: 37 µM
LOX IMVI melanoma
  TGI: 39.7 µM
HT29 colon
  TGI: 43.1 µM
SK-MEL-2 melanoma
  TGI: 63.2 µM
HS 578T breast
  TGI: 54.4 µM
K-562 leukemia
  TGI: 82.6 µM
SW-620 colon
  TGI: 39.3 µM
M14 melanoma
  TGI: 39.9 µM
NCI-H460 lung
  TGI: 72.8 µM
HOP-62 NSCLC
  TGI: 86.4 µM
MDA-N
  TGI: 29.2 µM
UACC-257 melanoma
  TGI: 89.9 µM
U251 CNS
  TGI: 33.6 µM
CAKI-1 renal
  TGI: 57.1 µM
DU-145 prostate
  TGI: 34.1 µM
RXF 393 renal
  TGI: 57.2 µM
NCI-H522 lung
  TGI: 60.4 µM
EKVX NSCLC
  TGI: 63.8 µM
NCI/ADR-RES ovarian
  TGI: 46.2 µM
T-47D breast
  TGI: 40.7 µM
UO-31 renal
  TGI: 37.2 µM
PC-3 prostate
  TGI: 50.7 µM
SR leukemia
  TGI: 55.1 µM
SNB-19 CNS
  TGI: 68.8 µM
OVCAR-3 ovarian
  TGI: 62.7 µM
HCT-116 colon
  TGI: 50.6 µM
A498 renal
  TGI: 50.1 µM
BT-549 breast
  TGI: 36.7 µM

## C=CCn1c(-c2ccc([N+](=O)[O-])cc2)csc1=N
KM12 colon
  TGI: > 100 µM
HCC-2998 colon
  TGI: > 100 µM
HCT-15 colon
  TGI: > 100 µM
OVCAR-5 ovarian
  TGI: > 100 µM
SK-MEL-5 melanoma
  TGI: > 100 µM
SNB-75 CNS
  TGI: 95.6 µM
IGROV1 ovarian
  TGI: > 100 µM
TK-10 renal
  TGI: > 100 µM
SK-OV-3 ovarian
  TGI: > 100 µM
MDA-MB-435
  TGI: > 100 µM
SF-295 CNS
  TGI: > 100 µM
SF-268 CNS
  TGI: > 100 µM
MDA-MB-231 breast
  TGI: > 100 µM
SK-MEL-28 melanoma
  TGI: > 100 µM
A549 NSCLC
  TGI: > 100 µM
HOP-92 NSCLC
  TGI: > 100 µM
OVCAR-8 ovarian
  TGI: > 100 µM
CCRF-CEM leukemia
  TGI: 34.7 µM
OVCAR-4 ovarian
  TGI: > 100 µM
MALME-3M melanoma
  TGI: > 100 µM
HL-60(TB) leukemia
  TGI: 45.2 µM
NCI-H226 lung
  TGI: > 100 µM
COLO 205 colon
  TGI: > 100 µM
ACHN renal
  TGI: > 100 µM
NCI-H23 lung
  TGI: > 100 µM
786-0 renal
  TGI: > 100 µM
SN12C renal
  TGI: > 100 µM
UACC-62 melanoma
  TGI: > 100 µM
LOX IMVI melanoma
  TGI: 70.5 µM
MCF7 breast
  TGI: > 100 µM
HT29 colon
  TGI: > 100 µM
SK-MEL-2 melanoma
  TGI: > 100 µM
HS 578T breast
  TGI: > 100 µM
K-562 leukemia
  TGI: 91.5 µM
SW-620 colon
  TGI: > 100 µM
M14 melanoma
  TGI: > 100 µM
NCI-H460 lung
  TGI: > 100 µM
HOP-62 NSCLC
  TGI: > 100 µM
MDA-N
  TGI: > 100 µM
UACC-257 melanoma
  TGI: > 100 µM
U251 CNS
  TGI: > 100 µM
CAKI-1 renal
  TGI: > 100 µM
DU-145 prostate
  TGI: > 100 µM
RXF 393 renal
  TGI: 54.4 µM
NCI-H522 lung
  TGI: > 100 µM
EKVX NSCLC
  TGI: > 100 µM
NCI/ADR-RES ovarian
  TGI: > 100 µM
T-47D breast
  TGI: > 100 µM
UO-31 renal
  TGI: > 100 µM
PC-3 prostate
  TGI: > 100 µM
SNB-19 CNS
  TGI: > 100 µM
OVCAR-3 ovarian
  TGI: > 100 µM
HCT-116 colon
  TGI: > 100 µM
A498 renal
  TGI: > 100 µM
BT-549 breast
  TGI: > 100 µM

## Oc1ccc(Cc2cc(Cl)cc(Cl)c2O)cc1Cl
KM12 colon
  TGI: 49.6 µM
HCT-15 colon
  TGI: 35.2 µM
OVCAR-5 ovarian
  TGI: 38.9 µM
SK-MEL-5 melanoma
  TGI: 32.1 µM
IGROV1 ovarian
  TGI: 34.1 µM
TK-10 renal
  TGI: 30.6 µM
MOLT-4 leukemia
  TGI: 55.6 µM
SK-OV-3 ovarian
  TGI: 60.5 µM
MDA-MB-435
  TGI: 27.1 µM
SF-295 CNS
  TGI: 39.6 µM
SF-268 CNS
  TGI: 31 µM
MDA-MB-231 breast
  TGI: 34.3 µM
SK-MEL-28 melanoma
  TGI: 32.9 µM
A549 NSCLC
  TGI: 41.3 µM
HOP-92 NSCLC
  TGI: 33.9 µM
OVCAR-8 ovarian
  TGI: 36.3 µM
RPMI-8226 leukemia
  TGI: 48.4 µM
OVCAR-4 ovarian
  TGI: 58.3 µM
MALME-3M melanoma
  TGI: 30.9 µM
SF-539 CNS
  TGI: 34.3 µM
HL-60(TB) leukemia
  TGI: 3.36 µM
NCI-H226 lung
  TGI: 40.2 µM
COLO 205 colon
  TGI: 35 µM
ACHN renal
  TGI: 31.2 µM
NCI-H23 lung
  TGI: 32.3 µM
786-0 renal
  TGI: 43 µM
SN12C renal
  TGI: 30.2 µM
UACC-62 melanoma
  TGI: 27.9 µM
LOX IMVI melanoma
  TGI: 31.4 µM
MCF7 breast
  TGI: 32.5 µM
HT29 colon
  TGI: 43.9 µM
SK-MEL-2 melanoma
  TGI: 29.7 µM
HS 578T breast
  TGI: 37.2 µM
K-562 leukemia
  TGI: 37.6 µM
SW-620 colon
  TGI: 41.2 µM
M14 melanoma
  TGI: 34 µM
NCI-H460 lung
  TGI: 32.4 µM
HOP-62 NSCLC
  TGI: 37.3 µM
MDA-N
  TGI: 22.4 µM
UACC-257 melanoma
  TGI: 30.4 µM
U251 CNS
  TGI: 36.2 µM
CAKI-1 renal
  TGI: 51.5 µM
DU-145 prostate
  TGI: 24.4 µM
RXF 393 renal
  TGI: 28.8 µM
NCI-H522 lung
  TGI: 31.6 µM
EKVX NSCLC
  TGI: 40.2 µM
NCI/ADR-RES ovarian
  TGI: 38.6 µM
T-47D breast
  TGI: 44.5 µM
UO-31 renal
  TGI: 31 µM
PC-3 prostate
  TGI: 33.1 µM
SR leukemia
  TGI: 47.2 µM
SNB-19 CNS
  TGI: 33.7 µM
OVCAR-3 ovarian
  TGI: 36.6 µM
HCT-116 colon
  TGI: 37.2 µM
A498 renal
  TGI: 33.8 µM
BT-549 breast
  TGI: 33.4 µM

Source: PubChem BioAssay (NCI)
